Measured values reported in US11872217B2, “Indanes as PD-L1 inhibitors” (CHEMOCENTRYX, INC., priority 2019, dated 2024).

molecular target: human PD-L1 / Human PD-1 (Homo sapiens (Human), UniProt Q9NZQ7); experiment: Enzyme-Linked Immunosorbent Assay (ELISA), PD-1/PD-L1 binding; settings: plates coated with human PD-L1; biotinylated human PD-1; absorbance at 450 nm
Method: 96 Well plates were coated with 1 μg/mL of human PD-L1 (obtained from R&D) in PBS overnight at 4° C. The wells were then blocked with 2% BSA in PBS (W/V) with 0.05% TWEEN-20 for 1 hour at 37° C. The plates were washed 3 times with PBS/0.05% TWEEN-20 and the compounds were serial diluted (1:5) in dilution medium and added to the ELISA plates. Human PD-1 and biotin 0.3 μg/mL (ACRO Biosystems) were added and incubated for 1 hour at 37° C. then washed 3 times with PBS/0.05% TWEEN-20. A second block was performed with 2% BSA in PBS (W/V)/0.05% TWEEN-20 for 10 min at 37° C. and the plates were washed 3 times with PBS/0.05% TWEEN-20. Streptavidin-HRP was added for 1 hour at 37° C. then the plates were washed 3 times with PBS/0.05% TWEEN-20. TMB substrate was added and reacted for 20 min at 37° C. A stop solution (2 N aqueous H2SO4) was added. The absorbance was read at 450 nm using a micro-plate spectrophotometer. The results are shown in Table 1: IC50 values are provided as follows: from 100 up to 10,000 nM (+); less than 100 nM (++).

Sequence of human PD-L1 / Human PD-1 (Q9NZQ7 19-239): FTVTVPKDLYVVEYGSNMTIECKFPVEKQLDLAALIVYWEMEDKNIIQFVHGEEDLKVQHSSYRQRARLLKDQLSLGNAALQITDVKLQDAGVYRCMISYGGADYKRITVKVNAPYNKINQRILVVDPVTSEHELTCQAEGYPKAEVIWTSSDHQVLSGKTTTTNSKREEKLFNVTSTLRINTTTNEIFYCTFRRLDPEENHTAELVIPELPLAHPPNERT

Compound | IC50
COc1cc(CN[C@@](C)(CO)C(=O)O)ccc1OCc1cccc(-c2cccc3c2CCC3Oc2ccc(CN[C@@](C)(CO)C(=O)O)cc2OC)c1C (stereo partly shown) [Compound 1.011] | 100 to 10000 nM
Cc1c(COc2ccc(CN[C@@](C)(CO)C(=O)O)cc2F)cccc1-c1cccc2c1CCC2Oc1ccc(CN[C@@](C)(CO)C(=O)O)cc1F (stereo partly shown) [Compound 1.010] | 100 to 10000 nM
CCOc1cc(O[C@H]2CCc3c(-c4cccc5c4CC[C@@H]5Oc4cc(OCC)c(CN[C@@](C)(CO)C(=O)O)cc4Cl)cccc32)c(Cl)cc1CN[C@@](C)(CO)C(=O)O [Compound 1.044] | < 100 nM
CCOc1cc(OCc2cccc(-c3cccc4c3CC[C@@H]4Oc3cc(OCC)c(CNCCS(=O)(=O)O)cc3Cl)c2C)c(Cl)cc1CNCCS(=O)(=O)O [Compound 1.004] | < 100 nM
CCOc1cc(O[C@@H]2c3cccc(-c4cccc(COc5cc(COC)c(CN[C@@](C)(CO)C(=O)O)cc5Cl)c4C)c3C[C@@H]2F)c(Cl)cc1CN[C@@](C)(CO)C(=O)O (mixture of isomers) [Compound 1.020] | < 100 nM
CCOc1cc(O[C@H]2CCc3c(-c4cccc5c4CC[C@@H]5Oc4cc(OCC)c(CN)cc4Cl)cccc32)c(Cl)cc1CN [Compound 1.003] | 100 to 10000 nM
COC(=O)CCCN(C)Cc1cc(Cl)c(O[C@H]2CCc3c(-c4cccc5c4CC[C@@H]5Oc4cc(OCc5cncc(C#N)c5)c(CN(C)CCCC(=O)OC)cc4Cl)cccc32)cc1OCc1cncc(C#N)c1 [Compound 1.027] | < 100 nM
